The values below come from patent US20140357655A1, “SPIROINDOLINE DERIVATIVES AS GONADOTROPIN- RELEASING HORMONE RECEPTOR ANTAGONISTS” (Bayer Intellectual Property GmbH, priority 2012, published 2014).

For this assay, the target named is T1, human GnRH receptor (Homo sapiens, UniProt P30968).
T1 sequence (P30968 1-328): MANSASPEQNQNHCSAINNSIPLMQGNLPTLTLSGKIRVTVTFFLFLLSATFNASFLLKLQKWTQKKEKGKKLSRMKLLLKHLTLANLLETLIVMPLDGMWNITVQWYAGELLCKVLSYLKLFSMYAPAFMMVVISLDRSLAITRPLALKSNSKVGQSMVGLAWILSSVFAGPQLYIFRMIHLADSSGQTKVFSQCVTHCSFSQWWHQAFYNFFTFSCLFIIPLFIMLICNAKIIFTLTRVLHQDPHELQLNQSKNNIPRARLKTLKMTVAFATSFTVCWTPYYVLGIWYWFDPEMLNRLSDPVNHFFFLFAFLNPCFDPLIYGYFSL
The assay can be described thus: IP-One HTRF assay with buserelin (at EC80) stimulation. The class given is cell-based. Particulars: CHO cells stably expressing human GnRH receptor, read-out: Potency in IP-One HTRF assay, given as IC50. The procedure, abridged:
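CHO cells stably expressing human GnRH receptor, preincubated 1 h at 37° C with IP1-d2, were exposed to compound and buserelin at EC80 for 1 h at 37° C. After lysis with Tb-anti-IP1 antibody (1 h, 22° C), 665/620 nm HTRF ratio read; 10 concentrations, 20 μM–1 nM, duplicates, 4-parameter IC50.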
In general terms: TR-FRET usually uses a lanthanide donor and a delayed reading to cut background.
What is called IC50 is the concentration that gives 50% inhibition. With `COC(=O)c1cccc(NC(=O)c2ccc3c(c2)C2(CCS(=O)(=O)CC2)C(C2CC2)N3S(=O)(=O)c2cccc(OC(F)F)c2)c1` (single isomer, unassigned) [Example 89.2, methyl 3-{[(2-cyclopropyl-1-{[3-(difluoromethoxy)phenyl]sulfonyl}-1′,1′-dioxido-1,2,2′,3′,5′,6′-hexahydrospiro[indole-3,4′-thiopyran]-5-yl)carbonyl]amino}benzoate], the IC50 was > 20000 nM.

For the compound `O=C(O)c1cccc(NC(=O)c2ccc3c(c2)C2(CCS(=O)(=O)CC2)C(C2CC2)N3S(=O)(=O)c2cccc(OC(F)F)c2)c1` (single isomer, unassigned) [Example 90.1, 3-{[(2-cyclopropyl-1-{[3-(difluoromethoxy)phenyl]sulfonyl}-1′,1′-dioxido-1,2,2′,3′,5′,6′-hexahydrospiro[indole-3,4′-thiopyran]-5-yl)carbonyl]amino}benzoic acid], the IC50 stood at 41 nM.

In the case of `O=C(O)c1cccc(NC(=O)c2ccc3c(c2)C2(CCS(=O)(=O)CC2)C(C2CC2)N3S(=O)(=O)c2cccc(OC(F)F)c2)c1` (single isomer, unassigned) [Example 90.2, 3-{[(2-cyclopropyl-1-{[3-(difluoromethoxy)phenyl]sulfonyl}-1′,1′-dioxido-1,2,2′,3′,5′,6′-hexahydrospiro[indole-3,4′-thiopyran]-5-yl)carbonyl]amino}benzoic acid], the 50% inhibitory concentration (IC50) was found to be 2860 nM.

As for `CC1N(S(=O)(=O)c2ccc(F)cc2)c2ccc(C(=O)NCc3ccccc3Cl)cc2C12CCOCC2` (stereo not shown) [Example 2, N-(2-chlorobenzyl)-1-[(4-fluorophenyl)sulfonyl]-2-methyl-1,2,2′,3′,5′,6′-hexahydrospiro[indole-3,4′-pyran]-5-carboxamide], the IC50 was found to be 189 nM.

On to `CC1N(S(=O)(=O)c2ccc(F)cc2)c2ccc(C(=O)NCc3ncccc3C(F)(F)F)cc2C12CCOCC2` (stereo not shown) [Example 3, 1-[(4-fluorophenyl)sulfonyl]-2-methyl-N-{[3-(trifluoromethyl)pyridin-2-yl]methyl}-1,2,2′,3′,5′,6′-hexahydrospiro[indole-3,4′-pyran]-5-carboxamide], for which the IC50 stood at 584 nM.

In the case of `CC1N(S(=O)(=O)c2ccc(F)cc2)c2ccc(C(=O)NCc3ccccc3C(F)(F)F)cc2C12CCOCC2` (stereo not shown) [Example 4, 1-[(4-fluorophenyl)sulfonyl]-2-methyl-N-[2-(trifluoromethyl)benzyl]-1,2,2′,3′,5′,6′-hexahydrospiro[indole-3,4′-pyran]-5-carboxamide], the IC50 was 281 nM.

With `CC1N(S(=O)(=O)c2ccc(F)cc2)c2ccc(C(=O)NCc3ncc(F)cc3Cl)cc2C12CCOCC2` (stereo not shown) [Example 5, N-[(3-chloro-5-fluoropyridin-2-yl)methyl]-1-[(4-fluorophenyl)sulfonyl]-2-methyl-1,2,2′,3′,5′,6′-hexahydrospiro[indole-3,4′-pyran]-5-carboxamide], the IC50 worked out at 345 nM.

Turning to `CC1N(S(=O)(=O)c2ccc(F)cc2)c2ccc(C(=O)NCc3ccccn3)cc2C12CCOCC2` (stereo not shown) [Example 6, 1-[(4-fluorophenyl)sulfonyl]-2-methyl-N-(2-pyridylmethyl)-1,2,2′,3′,5′,6′-hexahydrospiro[indole-3,4′-pyran]-5-carboxamide], the half-inhibitory concentration (IC50) turned out to be 6720 nM.

For the compound `CC1N(S(=O)(=O)c2ccc(F)cc2)c2ccc(C(=O)NCc3ccc(F)cc3)cc2C12CCOCC2` (stereo not shown) [Example 7, N-(4-fluorobenzyl)-1-[(4-fluorophenyl)sulfonyl]-2-methyl-1,2,2′,3′,5′,6′-hexahydrospiro[indole-3,4′-pyran]-5-carboxamide], the IC50 is 1060 nM.

For the compound `CC1N(S(=O)(=O)c2ccc(F)cc2)c2ccc(C(=O)NCc3ccccc3C#N)cc2C12CCOCC2` (stereo not shown) [Example 8, N-(2-cyanobenzyl)-1-[(4-fluorophenyl)sulfonyl]-2-methyl-1,2,2′,3′,5′,6′-hexahydrospiro[indole-3,4′-pyran]-5-carboxamide], the 50% inhibitory concentration (IC50) stood at 2510 nM.

On to `CC1N(S(=O)(=O)c2ccc(F)cc2)c2ccc(C(=O)NCc3ccccc3S(C)(=O)=O)cc2C12CCOCC2` (stereo not shown) [Example 9, 1-[(4-fluorophenyl)sulfonyl]-N-(2-mesylbenzyl)-2-methyl-1,2,2′,3′,5′,6′-hexahydrospiro[indole-3,4′-pyran]-5-carboxamide], for which the half-maximal inhibitory concentration (IC50) was determined as 4830 nM.

On to `CC1N(S(=O)(=O)c2ccc(F)cc2)c2ccc(C(=O)Nc3cccc(S(C)(=O)=O)c3)cc2C12CCOCC2` (stereo not shown) [Example 10, 1-[(4-fluorophenyl)sulfonyl]-N-(3-mesylphenyl)-2-methyl-1,2,2′,3′,5′,6′-hexahydrospiro[indole-3,4′-pyran]-5-carboxamide], for which the IC50 was 1390 nM.

`CC1N(S(=O)(=O)c2ccc(F)cc2)c2ccc(C(=O)Nc3cccc(S(=O)(=O)N(C)C)c3)cc2C12CCOCC2` (stereo not shown) [Example 11, N-[3-(N,N-dimethylsulfamoyl)phenyl]-1-[(4-fluorophenyl)sulfonyl]-2-methyl-1,2,2′,3′,5′,6′-hexahydrospiro[indole-3,4′-pyran]-5-carboxamide]: the IC50 came out at 378 nM.

In the case of `O=C(NCc1ccccc1Cl)c1ccc2c(c1)C1(CC[S+]([O-])CC1)C(C1CC1)N2S(=O)(=O)c1ccc(F)cc1` (stereo not shown) [Example 13, N-(2-Chlorobenzyl)-2-cyclopropyl-1-[(4-fluorophenyl)sulfonyl]-1,2,2′,3′,5′,6′-hexahydrospiro[indole-3,4′-thiopyran]-5-carboxamide 1′-oxide], the IC50 was 30 nM.

For `O=C(NCc1ncccc1C(F)(F)F)c1ccc2c(c1)C1(CCS(=O)(=O)CC1)C(C1CC1)N2S(=O)(=O)c1ccc(F)cc1` (stereo not shown) [Example 15, 2-cyclopropyl-1-[(4-fluorophenyl)sulfonyl]-N-{[3-(trifluoromethyl)pyridin-2-yl]methyl}-1,2,2′,3′,5′,6′-hexahydrospiro[indole-3,4′-thiopyran]-5-carboxamide 1′,1′-dioxide], the IC50 worked out at 103 nM.

As for `O=C(NCc1ccc(F)cc1Cl)c1ccc2c(c1)C1(CCS(=O)(=O)CC1)C(C1CC1)N2S(=O)(=O)c1ccc(F)cc1` (stereo not shown) [Example 16, N-(2-chloro-4-fluorobenzyl)-2-cyclopropyl-1-[(4-fluorophenyl)sulfonyl]-1,2,2′,3′,5′,6′-hexahydrospiro[indole-3,4′-thiopyran]-5-carboxamide 1′,1′-dioxide], the IC50 was 74 nM.

In the case of `O=C(NCc1ncc(F)cc1Cl)c1ccc2c(c1)C1(CCS(=O)(=O)CC1)C(C1CC1)N2S(=O)(=O)c1ccc(F)cc1` (stereo not shown) [Example 17, N-[(3-chloro-5-fluoropyridin-2-yl)methyl]-2-cyclopropyl-1-[(4-fluorophenyl)sulfonyl]-1,2,2′,3′,5′,6′-hexahydrospiro[indole-3,4′-thiopyran]-5-carboxamide 1′,1′-dioxide], the 50% inhibitory concentration (IC50) was 184 nM.

On to `O=C(NCc1ccccc1Cl)c1ccc2c(c1)C1(CCS(=O)(=O)CC1)C(C1CC1)N2S(=O)(=O)c1ccc(F)cc1` (stereo not shown) [Example 18, N-(2-chlorobenzyl)-2-cyclopropyl-1-[(4-fluorophenyl)sulfonyl]-1,2,2′,3′,5′,6′-hexahydrospiro[indole-3,4′-thiopyran]-5-carboxamide 1′,1′-dioxide], for which the IC50 is 47 nM.

As to `CC(C)(NC(=O)c1ccc2c(c1)C1(CCS(=O)(=O)CC1)C(C1CC1)N2S(=O)(=O)c1ccc(F)cc1)c1ccc(F)cc1Cl` (stereo not drawn) [Example 19, N-(2-chloro-4-fluoro-α,α-dimethylbenzyl)-2-cyclopropyl-1-[(4-fluorophenyl)sulfonyl]-1,2,2′,3′,5′,6′-hexahydrospiro[indole-3,4′-thiopyran]-5-carboxamide 1′,1′-dioxide], the IC50 amounted to 4170 nM.
